# From article PMC10384572, “Marine Meroterpenoids Isolated from Gongolaria abies-marina Induce Programmed Cell Death in Naegleria fowleri” (Pharmaceuticals, 2023)
# Key:
# [1] = tested on: N. fowleri ATCC® 30808; experiment: In vitro activity against N. fowleri trophozoites (alamarBlue), strain ATCC 30808; format: cell-based, Naegleria fowleri; settings: for IC50: Naegleria fowleri, ATCC30808, N. fowleri trophozoites, 48 h, alamarBlue, mean ± SD, read-out: IC50 ATCC® 30808; for Anti-Naegleria activity (in words): both tested strains of N. fowleri
# Method: (§1) The in vitro activity against N. fowleri trophozoites was evaluated in two different strains from the American Type Culture Collection (LG Promochem, Barcelona, Spain), ATCC® 30808™ and ATCC® 30215™. Cells were axenically grown in 2% Bactocasitone (w/v) medium (Thermo Fisher Scientific, Madrid, Spain) at 37 °C. Moreover, 10% (v/v) of fetal bovine serum (FBS) 0.3 μg/mL of Penicillin G Sodium Salt and 0.5 mg/mL of Streptomycin sulphate (Sigma-Aldrich, Madrid, Spain) were also added to the Bactocasitone medium.
# (§2) For these assays, a colorimetric assay was conducted using the alamarBlue® reagent. Briefly, N. fowleri trophozoites were seeded in duplicate in a 96-well microtiter plate. After that, different concentrations of the evaluated meroterpenoids diluted in fresh Bactocasitone were added to the wells. The negative control consisted on the trophozoites incubated with the medium alone. Lastly, the alamarBlue® (Life Technologies, Madrid, Spain) reagent was added. Plates were incubated in slight agitation at 37 °C. After 48 h, the fluorescence of the wells was analyzed in an EnSpire Multimode Plate Reader (Perkin Elmer, Madrid, Spain) using a wavelength of excitation of 570 nm and a wavelength of emission of 585 nm.
# (§3) In order to calculate the IC50 and IC90, a nonlinear regression analysis with a 95% confidence limit was performed.
# (§4) The in vitro IC50, IC90, and CC50 of the compounds were determined by a non-linear regression with a 95% confidence limit. The SigmaPlot 12.0 software (Systat Sofware Inc., London, UK) was used to perform the data analysis using a paired two-tailed t-test. Values of p < 0.05 were considered significant. The data represent the mean value and the SD of the conducted three different experiments.
# [2] = tested on: N. fowleri ATCC® 30215; experiment: In vitro activity against N. fowleri trophozoites (alamarBlue), strain ATCC 30215; format: cell-based; settings: Naegleria fowleri, ATCC30215, 48 h, mean ± SD
# Method: as §1, §2, §3, §4
# [3] = In vitro cytotoxicity against murine macrophages (alamarBlue); format: cell-based; settings: mouse, J774A.1 murine macrophages (ATCC TIB-67), murine macrophages J774A.1, 24 h, mean ± SD
# Method: Murine macrophages from the J774A.1 cell line (ATCC® TIB-67) were maintained in Dulbecco’s Modified Eagle’s medium (DMEM) in order to evaluate the toxicity of the compounds. In addition, 10% (v/v) FBS and 10 μg/mL gentamicin (Sigma-Aldrich, Madrid, Spain) were added to the growth medium. Cells were grown in a 5% CO2 atmosphere at 37 °C.
# For the cytotoxicity assays, the same protocol as detailed in Section 4.4 above was used. Murine macrophages were incubated with serial dilutions of the evaluated compounds at 37 °C in a 5% CO2 atmosphere over 24 h. The obtained data were analyzed as described in the previous section in order to calculate the CC50.
# as §4
# [4] = tested on: Acanthamoeba; design: method as in PMID 36916403; settings: cited from earlier work
Compound,IC50 [1],IC50 [2],CC50 at 24 h [3],Anti-Naegleria activity (in words) [1],Activity against tested species of Acanthamoeba (in words) [4],Anti-Naegleria activity (in words) ([1]; listed as 5),Anti-Naegleria activity (in words) ([1]; listed as gongolarone C (5))
"C[C@@H]1[C@H](O)[C@@H](C)/C=C/C=C/C=C/C=C/C=C/C=C/C=C/[C@H](O[C@@H]2O[C@H](C)[C@@H](O)[C@H](N)[C@@H]2O)C[C@@H]2O[C@](O)(C[C@@H](O)C[C@@H](O)[C@H](O)CC[C@@H](O)C[C@@H](O)CC(=O)O[C@H]1C)C[C@H](O)[C@H]2C(=O)O [Amphotericin B, amphotericin B, reference compound]",0.12 ± 0.03 µM,0.16 ± 0.03 µM,> 200 µM,,,,
"COc1c(C)cc(O)cc1C/C=C(\C)CC(=O)/C=C(\C)CCC[C@@H](C)[C@H]1C[C@@H](O)C(C)(C)O1 [Gongolarone A (4), gongolarone A]",> 100 µM,,> 400 µM,no anti-Naegleria activity,most active,,
"COc1c(C)cc(O)cc1CC/C(C)=C/C(=O)/C=C(\C)CCC[C@@H](C)C(=O)/C=C/C(C)(C)O [Gongolarone C (5), gongolarone C]",> 100 µM,,> 400 µM,,most active,no anti-Naegleria activity,loss of activity
"CCCCCCCCCCCCCCCCOP(=O)([O-])OCC[N+](C)(C)C [Miltefosine, miltefosine, reference compound]",38.7 ± 4.23 µM,81.6 ± 7.23 µM,128 ± 8.85 µM,,,,
